From patent US11292791B2 (priority 2017, dated 2022)

target: BRD4 (Homo sapiens (Human), UniProt O60885); conditions: read-out: BRD4 IC50 (μM gmean)

Compound	IC50 [µM]
COC(=O)N1c2ccc3c(nc(CCc4ccc(F)c(F)c4)n3[C@@H]3CCC[C@@H](C(=O)O)C3)c2CC[C@@H]1C [Example 509]	1 to 1000
COC(=O)N1c2ccc3c(nc(CCc4ccccc4)n3C)c2CC[C@@H]1C [Example 10]	1 to 1000
COC(=O)N1c2ccc3c(nc(Cc4ccccc4)n3CC3CNC3)c2CC[C@@H]1C [Example 97]	1 to 1000
COC(=O)N1c2ccc3c(nc(Cc4cnc(Cl)c(C)n4)n3[C@@H]3CCC[C@@H](C(=O)O)C3)c2CC[C@@H]1C [Example 745]	1 to 1000
COC(=O)N1c2ccc3c(nc(Cc4ccc(N(C)C)c(F)c4)n3[C@H]3CC[C@H](C(=O)O)CC3)c2CC[C@@H]1C [Example 581]	1 to 1000
COC(=O)N1c2ccc3c(nc(Cc4ccccc4)n3C3CC4CNCC4C3)c2CC[C@@H]1C (some centres unmarked) [Example 98]	1 to 1000
COC(=O)N1c2ccc3c(nc(C4(Oc5ccccc5)CC4)n3[C@H]3CC[C@H](C(=O)O)CC3)c2CC[C@@H]1C [Example 574]	1 to 1000
COC(=O)N1c2ccc3c(nc(Cc4cccc(F)c4)n3[C@@H]3CCC[C@@H](C(=O)O)C3)c2CC[C@@H]1C [Example 601]	1 to 1000
COC(=O)N1c2ccc3c(nc(CCn4ccccc4=O)n3CCNCc3ccn(C)n3)c2CC[C@@H]1C [Example 316]	1 to 1000
COC(=O)N1c2ccc3c(nc(COC4CCCC4)n3[C@H]3CC[C@H](C(=O)O)CC3)c2CC[C@@H]1C [Example 752]	1 to 1000
COC(=O)N1c2ccc3c(nc(Cc4cncc(C(C)C)n4)n3[C@@H]3CCC[C@@H](C(=O)O)C3)c2CC[C@@H]1C [Example 611]	1 to 1000
COC(=O)N1c2ccc3c(nc(CCn4cccn4)n3CCN3CCN(C4CC4)CC3)c2CC[C@@H]1C [Example 312]	1 to 1000
COC(=O)N1c2ccc3c(nc(Cc4ccc(N5CCCC5=O)cc4)n3[C@H]3CC[C@H](C(=O)O)CC3)c2CC[C@@H]1C [Example 664]	1 to 1000
COC(=O)N1c2ccc3c(nc(CCn4ccccc4=O)n3CC(=O)NCC(=O)N3CCCC3)c2CC[C@@H]1C [Example 383]	1 to 1000
COC(=O)N1c2ccc3c(nc(C(C)Cc4cnn(C)c4)n3C3CCNCC3)c2CC[C@@H]1C (some centres unmarked) [Example 951]	1 to 1000
COC(=O)N1c2ccc3c(nc(Cc4ncc(Cl)cn4)n3[C@@H]3CCC[C@@H](C(=O)O)C3)c2CC[C@@H]1C [Example 828]	1 to 1000
COC(=O)N1c2ccc3c(nc(Cc4ccccc4)n3[C@@H]3CCCS(=O)(=O)C3)c2CC[C@@H]1C [Example 265, methyl (S)-2-benzyl-3-((R)-1,1-dioxidotetrahydro-2H-thiopyran-3-yl)-7-methyl-3,7,8,9-tetrahydro-6H-imidazo[4,5-f]quinoline-6-carboxylate]	1 to 1000
COC(=O)N1c2ccc3c(nc(CC(C(=O)O)c4ccc(C)c(F)c4)n3C3CCCOC3)c2CC[C@@H]1C (some centres unmarked) [Example 407]	1 to 1000
COC(=O)N1c2ccc3c(nc(CC(C(=O)O)c4ccccc4)n3C3COCC(F)(F)C3)c2CC[C@@H]1C (some centres unmarked) [Example 594]	1 to 1000
COC(=O)N1c2ccc3c(nc(S(=O)(=O)Cc4ccccc4)n3[C@H]3CC[C@H](C(=O)O)CC3)c2CC[C@@H]1C [Example 882]	1 to 1000
COC(=O)N1c2ccc3c(nc(Cc4ccccc4)n3[C@@H]3CC[C@@H](CO)OC3)c2CC[C@@H]1C [Example 66, methyl (S)-2-benzyl-3-((3R,6S)-6-(hydroxymethyl)tetrahydro-2H-pyran-3-yl)-7-methyl-3,7,8,9-tetrahydro-6H-imidazo[4,5-f]quinoline-6-carboxylate]	1 to 1000

Compound	IC50 [µM]
COC(=O)N1c2ccc3c(nc(N(C)c4ccc(F)cc4)n3[C@H]3CC[C@H](C(=O)O)CC3)c2CC[C@@H]1C [Example 805]	1 to 1000
COC(=O)N1c2ccc3c(nc(Nc4ccc(OC)cc4F)n3[C@H]3CC[C@H](C(=O)O)CC3)c2CC[C@@H]1C [Example 851]	1 to 1000
COC(=O)N1c2ccc3c(nc(COC4CCOCC4)n3[C@@H]3CCC[C@@H](C(=O)O)C3)c2CC[C@@H]1C [Example 741]	1 to 1000
COC(=O)N1c2ccc3c(nc([C@@H](CO)c4ccccc4)n3C3CCOCC3)c2CC[C@@H]1C [Example 47, methyl (7S)-2-[(1S)-2-hydroxy-1-phenylethyl]-7-methyl-3-(oxan-4-yl)-3H,6H,7H,8H,9H-imidazo[4,5-f]quinoline-6-carboxylate]	1 to 1000
COC(=O)N1c2ccc3c(nc(Cc4ccccc4)n3CC(N)=O)c2CC[C@@H]1C [Example 286, methyl (S)-3-(2-amino-2-oxoethyl)-2-benzyl-7-methyl-3,7,8,9-tetrahydro-6H-imidazo[4,5-f]quinoline-6-carboxylate]	1 to 1000
COC(=O)N1c2ccc3c(nc(CCn4nccn4)n3C3CCS(=O)(=O)CC3)c2CC[C@@H]1C [Example 275]	1 to 1000
COC(=O)N1c2ccc3c(nc(CC(C(=O)O)c4ccc(F)c(F)c4)n3C3CCCC3)c2CC[C@@H]1C (some centres unmarked) [Example 447]	1 to 1000
COC(=O)N1c2ccc3c(nc(CCn4ccccc4=O)n3CC(=O)NCc3ncnn3C)c2CC[C@@H]1C [Example 372]	1 to 1000
COC(=O)N1c2ccc3c(nc(CCC4CCOCC4)n3[C@H]3CC[C@H](C(=O)O)CC3)c2CC[C@@H]1C [Example 784]	1 to 1000
COC(=O)N1c2ccc3c(nc(C(C)Cn4cccn4)n3C3CCC(C(=O)O)CC3)c2CC[C@@H]1C (some centres unmarked) [Example 917]	1 to 1000
COC(=O)N1c2ccc3c(nc(CC(C(=O)O)c4ccc(F)cc4)n3C3CCCOC3)c2CC[C@@H]1C (some centres unmarked) [Example 510]	1 to 1000
COC(=O)N1c2ccc3c(nc(C(C)(O)c4ccccn4)n3C3CCCC(C(=O)O)C3)c2CC[C@@H]1C (some centres unmarked) [Example 749]	1 to 1000
COC(=O)N1c2ccc3c(nc(COC4CCCCC4)n3[C@H]3CC[C@H](C(=O)O)CC3)c2CC[C@@H]1C [Example 692]	1 to 1000
COC(=O)N1c2ccc3c(nc(CCc4ccccc4C(=O)O)n3C3CCCCC3)c2CC[C@@H]1C [Example 521]	1 to 1000
COC(=O)N1c2ccc3c(nc(C(C)Cc4ccccc4)n3C3CCNCC3)c2CC[C@@H]1C (some centres unmarked) [Example 947]	1 to 1000
COC(=O)N1c2ccc3c(nc(CCn4cccn4)n3CCN3CCC(O)CC3)c2CC[C@@H]1C [Example 298]	1 to 1000
COC(=O)N1c2ccc3c(nc(N(C)c4ccc(C#N)cc4)n3[C@@H]3CCC[C@@H](C(=O)O)C3)c2CC[C@@H]1C [Example 681]	1 to 1000
COC(=O)N1c2ccc3c(nc(C(C)Cc4cnn(C)c4)n3C3CCCC(C(=O)O)C3)c2CC[C@@H]1C (some centres unmarked) [Example 742]	1 to 1000
COC(=O)N1c2ccc3c(nc(Cc4ccccc4)n3C[C@@H]3CCCNC3)c2CC[C@@H]1C [Example 86]	1 to 1000
COC(=O)N1c2ccc3c(nc(CCn4cccn4)n3CC(=O)NC[C@H]3CCCO3)c2CC[C@@H]1C [Example 347]	1 to 1000
COC(=O)N1c2ccc3c(nc(Cc4ccccc4)n3[C@H]3C[C@H](C(=O)O)C3)c2CC[C@@H]1C [Example 21]	1 to 1000

Compound	IC50 [µM]
COC(=O)N1c2ccc3c(nc(CC(C(=O)O)c4ccc(C)cc4)n3C3CCCOC3)c2CC[C@@H]1C (some centres unmarked) [Example 829]	1 to 1000
COC(=O)N1c2ccc3c(nc(C[C@H](C(=O)O)c4ccccc4)n3C)c2CC[C@@H]1C [Example 135, (S)-3-((S)-6-(methoxycarbonyl)-3,7-dimethyl-6,7,8,9-tetrahydro-3H-imidazo[4,5-f]quinolin-2-yl)-2-phenylpropanoic Acid]	1 to 1000
COC(=O)N1c2ccc3c(nc(C(C)Cn4cc(Cl)cn4)n3C3CCC(C(=O)O)CC3)c2CC[C@@H]1C (some centres unmarked) [Example 551]	1 to 1000
COC(=O)N1c2ccc3c(nc(CCn4cccn4)n3CCN3CCC(C#N)CC3)c2CC[C@@H]1C [Example 308]	1 to 1000
COC(=O)N1c2ccc3c(nc(CCc4cccnc4)n3C)c2CC[C@@H]1C [Example 13]	1 to 1000
COC(=O)N1c2ccc3c(nc(CCn4ccccc4=O)n3CCN(C)[C@H]3CCOC3)c2CC[C@@H]1C [Example 326]	1 to 1000
COC(=O)N1c2ccc3c(nc(Cc4ccc(OC)c(Cl)c4)n3[C@H]3CC[C@H](C(=O)O)CC3)c2CC[C@@H]1C [Example 508]	1 to 1000
COC(=O)N1c2ccc3c(nc(C[C@H](C(=O)O)c4ccccc4)n3C)c2CC[C@@H]1C [Example 134, (2S)-3-[(7S)-6-(methoxycarbonyl)-3,7-dimethyl-3H,6H,7H,8H,9H-imidazo[4,5-f]quinolin-2-yl]-2-phenylpropanoic Acid]	1 to 1000
COC(=O)N1c2ccc3c(nc(CCn4cccn4)n3C)c2CC[C@@H]1C [Example 11]	1 to 1000
COC(=O)N1c2ccc3c(nc(CCn4ccccc4=O)n3CC(=O)NC3COC3)c2CC[C@@H]1C [Example 393]	1 to 1000
COC(=O)N1c2ccc3c(nc(C[C@@H](C(=O)O)c4ccccc4)n3CCN(C)C)c2CC[C@@H]1C [Example 137, (R)-3-((S)-3-(2-(dimethylamino)ethyl)-6-(methoxycarbonyl)-7-methyl-6,7,8,9-tetrahydro-3H-imidazo[4,5-f]quinolin-2-yl)-2-phenylpropanoic Acid]	1 to 1000
COC(=O)N1c2ccc3c(nc(CCn4cccn4)n3CCN3CC[C@@H](NC(C)=O)C3)c2CC[C@@H]1C [Example 309]	1 to 1000
COC(=O)N1c2ccc3c(nc(Cc4ccc(OC)c(F)c4)n3C3CCNCC3)c2CC[C@@H]1C [Example 103]	1 to 1000
COC(=O)N1c2ccc3c(nc(CC(C(=O)O)c4ccccc4)n3-c3cccc(C#N)c3)c2CC[C@@H]1C (some centres unmarked) [Example 698]	1 to 1000
COC(=O)N1c2ccc3c(nc(C4(c5cncc(C)n5)CC4)n3[C@@H]3CCC[C@@H](C(=O)O)C3)c2CC[C@@H]1C [Example 704]	1 to 1000
COC(=O)N1c2ccc3c(nc(CCc4cccc(OC(C)C)c4)n3C3CC4(CNC4)C3)c2CC[C@@H]1C [Example 101]	1 to 1000
COC(=O)N1c2ccc3c(nc(C(C)Cn4cccn4)n3C3CCS(=O)(=O)CC3)c2CC[C@@H]1C (some centres unmarked) [Example 754]	1 to 1000
COC(=O)N1c2ccc3c(nc(C(C)Cn4cc(Cl)cn4)n3C3CCS(=O)(=O)C3)c2CC[C@@H]1C (some centres unmarked) [Example 709]	1 to 1000
COC(=O)N1c2ccc3c(nc(CCc4ccccc4)n3C3CC4(CNC4)C3)c2CC[C@@H]1C [Example 81]	1 to 1000
COC(=O)N1c2ccc3c(nc(CCn4cccn4)n3CCNC3COC3)c2CC[C@@H]1C [Example 305]	1 to 1000
